In ChEMBL document CHEMBL3045080, “Baseline susceptibility to chlorantraniliprole of Brazilian populations of Plutella xylostella” (2012):

Tests used:
Type in all cases: functional
Plutella xylostella [1] = assay: Insecticidal activity against Plutella xylostella (diamondback moth) CG1 using topical method of compound application
Plutella xylostella [2] = assay: Insecticidal activity against Plutella xylostella (diamondback moth) CG1 using leaf dip immersion method of compound application
Plutella xylostella [3] = assay: Insecticidal activity against Plutella xylostella (diamondback moth) CG1 using potter tower method of compound application
Plutella xylostella [4] = assay: Insecticidal activity against Plutella xylostella (diamondback moth) Brazilian field isolates

CNC(=O)c1cc(Cl)cc(C)c1NC(=O)c1cc(Br)nn1-c1ncccc1Cl [CHLORANTRANILIPROLE]
LC50 (Plutella xylostella [1]): 1.422 mgAi/L | LC95 (Plutella xylostella [1]): 35.13 mgAi/L | LC99 (Plutella xylostella [1]): 132.65 mgAi/L | LC50 (Plutella xylostella [2]): 0.02 mgAi/L | LC95 (Plutella xylostella [2]): 0.046 mgAi/L | LC99 (Plutella xylostella [2]): 0.066 mgAi/L | LC50 (Plutella xylostella [3]): 0.018 mgAi/L | LC95 (Plutella xylostella [3]): 0.073 mgAi/L | LC99 (Plutella xylostella [3]): 0.13 mgAi/L | LC50 (Plutella xylostella [4]): 0.025 mgAi/L | LC99 (Plutella xylostella [4]): 0.212 mgAi/L
